Reference: patent US4720543A, “1a-7-substituted derivatives of mitomycin and uses thereof” (priority 1985, dated 1988)
Entries after “also recorded” stand apart in the source; their conditions may differ.

What was measured:
[1] = system: peripheral leukocyte (WBC); assay: effects on peripheral leukocyte (WBC) count; format: in vivo, mice; conditions: LD10-range dose i.p., days 3, 4, 5, 6 and 10
Protocol: Comparative studies were performed with M-TAG and mitomycin C. Drug was dissolved in absolute ethanol, and then adjusted to a final concentration of 8% ethanol-92% sterile water. Blood samples obtained were diluted in 9.98 ml of Isoton (a neutral isotonic buffer solution) and counted in a Coulter counter after lysis with Zapoglobin (an enzyme solution which lyses red blood cells but not white blood cells). WBC counts are expressed as a percentage of values from control mice receiving drug vehicle only.

TA100 (Salmonella Sp.) = assay: antibiotic activity, bacterial growth inhibition in culture; format: cell-based
Protocol: (§1) Bacteria were grown in a standard growth culture at pH 7.2. After the cultures were incubated at 37° C. overnight and diluted into fresh medium, controls and the test antibiotics dissolved in 0.3% hydroxy propylcellulose (HPC) were added at various concentrations and then reincubated overnight. The measure of antibiotic activity was determined by the amount of bacterial growth inhibition as shown by measurement of the optical density at 660 nm.

Klebsiella Pneumonia = assay: as above; format: cell-based
Protocol: as §1

W3100 (E. coli) = assay: as above; format: cell-based
Protocol: as §1

Staphylococcus Sp. = assay: as above; format: cell-based
Protocol: as §1

Pseudomonas Sp. = assay: as above; format: cell-based
Protocol: as §1

SMILES: CO[C@@]12[C@H](COC(N)=O)C3=C(C(=O)C(C)=C(N)C3=O)N1C[C@H]1[C@@H]2N1C(=S)N[C@@H]1O[C@H](COC(C)=O)[C@@H](OC(C)=O)[C@H](OC(C)=O)[C@H]1NC(C)=O [M-TAG, 1a(N-2-acetamido-3,4,6-tri-O-acetyl-2-deoxy-D-glucopyranosylthiocarbamoyl)-mitomycin C]
- WBC depression / myelotoxicity (in words) [1]: no significant depression in WBC counts at all days tested; also recorded: no significant myelotoxicity as measured by WBC depression
- optical density at 660 nm (figure in parentheses) (TA100 (Salmonella Sp.); 0.04 mcg/ml): 0.34
- optical density at 660 nm (figure in parentheses) (TA100 (Salmonella Sp.); 0.4 mcg/ml): 0.11
- optical density at 660 nm (figure in parentheses) (TA100 (Salmonella Sp.); 4.0 mcg/ml): 0.97
- optical density at 660 nm (figure in parentheses) (TA100 (Salmonella Sp.); 40 mcg/ml): 0.97
- optical density at 660 nm (figure in parentheses) (TA100 (Salmonella Sp.); 400 mcg/ml): 0.02
- inhibition at 0.04 µg/mL (TA100 (Salmonella Sp.); Salmonella, 0.04 mcg/ml, 37° C. overnight, read-out: amount of bacterial growth inhibition (first figure)): 46%
- inhibition at 0.4 µg/mL (TA100 (Salmonella Sp.); Salmonella, 0.4 mcg/ml, 37° C. overnight, read-out: amount of bacterial growth inhibition (first figure)): 78%
- inhibition at 4 µg/mL (TA100 (Salmonella Sp.); Salmonella, 4.0 mcg/ml, 37° C. overnight, read-out: amount of bacterial growth inhibition (first figure)): 80%
- inhibition at 40 µg/mL (TA100 (Salmonella Sp.); Salmonella, 40 mcg/ml, 37° C. overnight, read-out: amount of bacterial growth inhibition (first figure)): 80%
- inhibition at 400 µg/mL (TA100 (Salmonella Sp.); Salmonella, 400 mcg/ml, 37° C. overnight, read-out: amount of bacterial growth inhibition (first figure)): 95%
- optical density at 660 nm (figure in parentheses) (Klebsiella Pneumonia; 0.04 mcg/ml): 0.66
- optical density at 660 nm (figure in parentheses) (Klebsiella Pneumonia; 0.4 mcg/ml): 0.62
- optical density at 660 nm (figure in parentheses) (Klebsiella Pneumonia; 4.0 mcg/ml): 0.59
- optical density at 660 nm (figure in parentheses) (Klebsiella Pneumonia; 40 mcg/ml): 0.40
- optical density at 660 nm (figure in parentheses) (Klebsiella Pneumonia; 400 mcg/ml): 0.04
- inhibition at 0.04 µg/mL (Klebsiella Pneumonia; Klebsiella pneumoniae, 0.04 mcg/ml, 37° C. overnight, read-out: amount of bacterial growth inhibition (first figure)): 22%
- inhibition at 0.4 µg/mL (Klebsiella Pneumonia; Klebsiella pneumoniae, 0.4 mcg/ml, 37° C. overnight, read-out: amount of bacterial growth inhibition (first figure)): 24%
- inhibition at 4 µg/mL (Klebsiella Pneumonia; Klebsiella pneumoniae, 4.0 mcg/ml, 37° C. overnight, read-out: amount of bacterial growth inhibition (first figure)): 26%
- inhibition at 40 µg/mL (Klebsiella Pneumonia; Klebsiella pneumoniae, 40 mcg/ml, 37° C. overnight, read-out: amount of bacterial growth inhibition (first figure)): 40%
- inhibition at 400 µg/mL (Klebsiella Pneumonia; Klebsiella pneumoniae, 400 mcg/ml, 37° C. overnight, read-out: amount of bacterial growth inhibition (first figure)): 92%
- optical density at 660 nm (figure in parentheses) (W3100 (E. coli); 0.04 mcg/ml): 0.48
- optical density at 660 nm (figure in parentheses) (W3100 (E. coli); 0.4 mcg/ml): 0.51
- optical density at 660 nm (figure in parentheses) (W3100 (E. coli); 4.0 mcg/ml): 0.30
- optical density at 660 nm (figure in parentheses) (W3100 (E. coli); 40 mcg/ml): 0.07
- optical density at 660 nm (figure in parentheses) (W3100 (E. coli); 400 mcg/ml): 0.04
- inhibition at 0.04 µg/mL (W3100 (E. coli); Escherichia coli, 0.04 mcg/ml, 37° C. overnight, read-out: amount of bacterial growth inhibition (first figure)): 33%
- inhibition at 0.4 µg/mL (W3100 (E. coli); Escherichia coli, 0.4 mcg/ml, 37° C. overnight, read-out: amount of bacterial growth inhibition (first figure)): 31%
- inhibition at 4 µg/mL (W3100 (E. coli); Escherichia coli, 4.0 mcg/ml, 37° C. overnight, read-out: amount of bacterial growth inhibition (first figure)): 50%
- inhibition at 40 µg/mL (W3100 (E. coli); Escherichia coli, 40 mcg/ml, 37° C. overnight, read-out: amount of bacterial growth inhibition (first figure)): 86%
- inhibition at 400 µg/mL (W3100 (E. coli); Escherichia coli, 400 mcg/ml, 37° C. overnight, read-out: amount of bacterial growth inhibition (first figure)): 92%
- optical density at 660 nm (figure in parentheses) (Staphylococcus Sp.; 0.04 mcg/ml): 0.52
- optical density at 660 nm (figure in parentheses) (Staphylococcus Sp.; 0.4 mcg/ml): 0.02
- optical density at 660 nm (figure in parentheses) (Staphylococcus Sp.; 4.0 mcg/ml): 0.018
- optical density at 660 nm (figure in parentheses) (Staphylococcus Sp.; 40 mcg/ml): 0.03
- optical density at 660 nm (figure in parentheses) (Staphylococcus Sp.; 400 mcg/ml): 0.00
- inhibition at 0.04 µg/mL (Staphylococcus Sp.; Staphylococcus, 0.04 mcg/ml, 37° C. overnight, read-out: amount of bacterial growth inhibition (first figure)): 30%
- inhibition at 0.4 µg/mL (Staphylococcus Sp.; Staphylococcus, 0.4 mcg/ml, 37° C. overnight, read-out: amount of bacterial growth inhibition (first figure)): 95%
- inhibition at 4 µg/mL (Staphylococcus Sp.; Staphylococcus, 4.0 mcg/ml, 37° C. overnight, read-out: amount of bacterial growth inhibition (first figure)): 96%
- inhibition at 40 µg/mL (Staphylococcus Sp.; Staphylococcus, 40 mcg/ml, 37° C. overnight, read-out: amount of bacterial growth inhibition (first figure)): 94%
- inhibition at 400 µg/mL (Staphylococcus Sp.; Staphylococcus, 400 mcg/ml, 37° C. overnight, read-out: amount of bacterial growth inhibition (first figure)): 100%
- optical density at 660 nm (figure in parentheses) (Pseudomonas Sp.; 0.04 mcg/ml): 0.52
- optical density at 660 nm (figure in parentheses) (Pseudomonas Sp.; 0.4 mcg/ml): 0.35
- optical density at 660 nm (figure in parentheses) (Pseudomonas Sp.; 4.0 mcg/ml): 0.13
- optical density at 660 nm (figure in parentheses) (Pseudomonas Sp.; 40 mcg/ml): 0.11
- optical density at 660 nm (figure in parentheses) (Pseudomonas Sp.; 400 mcg/ml): 0.11
- inhibition at 0.04 µg/mL (Pseudomonas Sp.; Pseudomonas, 0.04 mcg/ml, 37° C. overnight, read-out: amount of bacterial growth inhibition (first figure)): 30%
- inhibition at 0.4 µg/mL (Pseudomonas Sp.; Pseudomonas, 0.4 mcg/ml, 37° C. overnight, read-out: amount of bacterial growth inhibition (first figure)): 45%
- inhibition at 4 µg/mL (Pseudomonas Sp.; Pseudomonas, 4.0 mcg/ml, 37° C. overnight, read-out: amount of bacterial growth inhibition (first figure)): 75%
- inhibition at 40 µg/mL (Pseudomonas Sp.; Pseudomonas, 40 mcg/ml, 37° C. overnight, read-out: amount of bacterial growth inhibition (first figure)): 75%
- inhibition at 400 µg/mL (Pseudomonas Sp.; Pseudomonas, 400 mcg/ml, 37° C. overnight, read-out: amount of bacterial growth inhibition (first figure)): 78%
